{"source": "patent US20160034667A1", "about": "“TAILORED DRUG THERAPIES AND METHODS AND SYSTEMS FOR DEVELOPING SAME” (COMPANION DX REFERENCE LAB, LLC, priority 2014, published 2016)", "origin": "cited, not measured here", "key": {"[1]": {"test_system": "NSCLC patients with drug-sensitive EGFR mutations"}, "[2]": {"test_system": "molecularly unselected NSCLC patients", "details": "FIG. 8 (A)"}, "CYP2D6": {"biological_target": "CYP2D6 (Homo sapiens, UniProt P10635)", "sequence (P10635 whole entry)": "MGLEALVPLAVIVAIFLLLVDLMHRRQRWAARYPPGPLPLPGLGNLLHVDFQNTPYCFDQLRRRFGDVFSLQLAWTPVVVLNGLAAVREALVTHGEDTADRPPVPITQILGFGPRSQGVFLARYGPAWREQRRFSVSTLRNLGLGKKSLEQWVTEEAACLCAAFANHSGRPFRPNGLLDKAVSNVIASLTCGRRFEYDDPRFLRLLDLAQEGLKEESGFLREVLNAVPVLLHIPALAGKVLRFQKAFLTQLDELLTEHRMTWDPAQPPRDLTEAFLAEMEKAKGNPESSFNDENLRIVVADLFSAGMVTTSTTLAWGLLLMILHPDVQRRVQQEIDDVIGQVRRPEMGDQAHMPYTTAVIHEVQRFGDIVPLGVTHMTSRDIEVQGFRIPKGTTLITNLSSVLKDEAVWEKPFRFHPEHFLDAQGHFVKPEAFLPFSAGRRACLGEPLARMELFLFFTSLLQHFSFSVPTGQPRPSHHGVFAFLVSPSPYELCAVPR"}, "[3]": {"assay": "not given", "remark": "listed apart in the source"}, "[4]": {"details": "printed on the line of the peak range"}, "[5]": {"details": "printed on the line of the trough range"}}, "note": "Where two headings read alike, the source gives them in different places."}
{"compound": "CC(=O)Nc1ccc(O)cc1", "note": "[Acetaminophen]", "values": [{"measurement": "Critical", "setting": "in vivo", "value": ">40", "unit": "mg/L"}, {"measurement": "Therapeutic Range", "setting": "in vivo", "value": "10 to 25", "unit": "mg/L"}, {"measurement": "t1/2", "setting": "in vivo", "value": "1 to 3", "unit": "h"}]}
{"compound": "NCC[C@H](O)C(=O)N[C@@H]1C[C@H](N)[C@@H](O[C@H]2O[C@H](CN)[C@@H](O)[C@H](O)[C@H]2O)[C@H](O)[C@H]1O[C@H]1O[C@H](CO)[C@@H](O)[C@H](N)[C@H]1O", "note": "[Amikacin]", "values": [{"measurement": "Critical", "setting": "in vivo", "value": ">40", "unit": "mg/L"}, {"measurement": "t1/2", "setting": "in vivo", "value": 2.5, "unit": "h"}, {"measurement": "Therapeutic Range, peak", "value": "peak 20-30 mg/L,"}, {"measurement": "Therapeutic Range, trough", "value": "trough 1-8 mg/L"}]}
{"compound": "NC(=O)N1c2ccccc2C=Cc2ccccc21", "note": "[Carbamazepine]", "values": [{"measurement": "Critical", "setting": "in vivo", "value": ">15", "unit": "mg/L"}, {"measurement": "Therapeutic Range", "setting": "in vivo", "value": "8 to 12", "unit": "mg/L"}, {"measurement": "t1/2", "setting": "in vivo", "value": "10 to 48", "unit": "h"}]}
{"compound": "C[C@H]1O[C@@H](O[C@H]2[C@@H](O)C[C@H](O[C@H]3[C@@H](O)C[C@H](O[C@H]4CC[C@@]5(C)[C@H](CC[C@@H]6[C@@H]5C[C@@H](O)[C@]5(C)[C@@H](C7=CC(=O)OC7)CC[C@]65O)C4)O[C@@H]3C)O[C@@H]2C)C[C@H](O)[C@@H]1O", "note": "[Digoxin]", "values": [{"measurement": "t1/2", "setting": "in vivo", "value": "33 to 51", "unit": "h"}]}
{"compound": "CCN(CC)CC(=O)Nc1c(C)cccc1C", "note": "[Lidocaine]", "values": [{"measurement": "Critical", "setting": "in vivo", "value": ">8.0", "unit": "mg/L"}, {"measurement": "Therapeutic Range", "setting": "in vivo", "value": "1.5 to 5", "unit": "mg/L"}]}
{"compound": "[Li]", "note": "[Lithium]", "values": [{"measurement": "Critical", "setting": "in vivo", "value": ">2.0", "unit": "mmol/L"}, {"measurement": "Therapeutic Range", "setting": "in vivo", "value": "0.5 to 1.5", "unit": "mmol/L"}, {"measurement": "t1/2", "setting": "in vivo", "value": 19, "unit": "h"}]}
{"compound": "CCN(CC)CCNC(=O)c1ccc(NC(C)=O)cc1", "note": "[NAPA, N-acetylprocainamide]", "values": [{"measurement": "t1/2", "setting": "in vivo", "value": "6 to 12", "unit": "h"}]}
{"compound": "CCC1(c2ccccc2)C(=O)NC(=O)NC1=O", "note": "[Phenobarbital]", "values": [{"measurement": "t1/2", "setting": "in vivo", "value": "72 to 100", "unit": "h"}]}
{"compound": "O=C1NC(=O)C(c2ccccc2)(c2ccccc2)N1", "note": "[Phenytoin]", "values": [{"measurement": "Critical", "setting": "in vivo", "value": ">25", "unit": "mg/L"}, {"measurement": "Therapeutic Range", "setting": "in vivo", "value": "10 to 20", "unit": "mg/L"}, {"measurement": "t1/2", "setting": "in vivo", "value": "6 to 24", "unit": "h"}]}
{"compound": "CCC1(c2ccccc2)C(=O)NCNC1=O", "note": "[Primidone]", "values": [{"measurement": "Critical", "setting": "in vivo", "value": ">15", "unit": "mg/L"}, {"measurement": "Therapeutic Range", "setting": "in vivo", "value": "5 to 12", "unit": "mg/L"}, {"measurement": "t1/2", "setting": "in vivo", "value": "6 to 12", "unit": "h"}]}
{"compound": "C=C[C@H]1C[N@@]2CC[C@H]1C[C@@H]2[C@@H](O)c1ccnc2ccc(OC)cc12", "note": "[Quinidine]", "values": [{"measurement": "Critical", "setting": "in vivo", "value": ">7", "unit": "mg/L"}]}
{"compound": "O=C(O)c1ccccc1O", "note": "[Salicylate]", "values": [{"measurement": "Critical", "setting": "in vivo", "value": ">450", "unit": "mg/L"}, {"measurement": "Therapeutic Range", "setting": "in vivo", "value": "100 to 300", "unit": "mg/L"}, {"measurement": "t1/2", "setting": "in vivo", "value": "2 to 19", "unit": "h"}]}
{"compound": "Cn1c(=O)c2[nH]cnc2n(C)c1=O", "note": "[Theophylline]", "values": [{"measurement": "Therapeutic Range", "setting": "in vivo", "value": "10 to 20", "unit": "mg/L"}, {"measurement": "t1/2", "setting": "in vivo", "value": "3 to 9", "unit": "h"}]}
{"compound": "NC[C@H]1O[C@H](O[C@H]2[C@H](O)[C@@H](O[C@H]3O[C@H](CO)[C@@H](O)[C@H](N)[C@H]3O)[C@H](N)C[C@@H]2N)[C@H](N)C[C@@H]1O", "note": "[Tobramycin]", "values": [{"measurement": "t1/2", "setting": "in vivo", "value": 2, "unit": "h"}, {"measurement": "Therapeutic Range, peak", "value": "peak 4-10 mg/L,"}, {"measurement": "Critical", "setting": "[4]", "value": ">12 mg/L,"}, {"measurement": "Critical", "setting": "[5]", "value": ">5", "unit": "mg/L"}, {"measurement": "Therapeutic Range, trough", "value": "trough 0.5-1.5 mg/L"}]}
{"compound": "CCCC(CCC)C(=O)O", "note": "[Valproic acid]", "values": [{"measurement": "Critical", "setting": "in vivo", "value": ">200", "unit": "mg/L"}, {"measurement": "Therapeutic Range", "setting": "in vivo", "value": "50 to 100", "unit": "mg/L"}, {"measurement": "t1/2", "setting": "in vivo", "value": "8 to 15", "unit": "h"}]}
{"compound": "CN[C@H](CC(C)C)C(=O)N[C@H]1C(=O)N[C@@H](CC(N)=O)C(=O)N[C@H]2C(=O)N[C@H]3C(=O)N[C@H](C(=O)N[C@H](C(=O)O)c4cc(O)cc(O)c4-c4cc3ccc4O)[C@H](O)c3ccc(c(Cl)c3)Oc3cc2cc(c3O[C@@H]2O[C@H](CO)[C@@H](O)[C@H](O)[C@H]2O[C@H]2C[C@](C)(N)[C@H](O)[C@H](C)O2)Oc2ccc(cc2Cl)[C@H]1O", "note": "[Vancomycin]", "values": [{"measurement": "t1/2", "setting": "in vivo", "value": "5.0 to 6.5", "unit": "h"}, {"measurement": "Therapeutic Range, peak", "value": "peak 30-40 mg/L,"}, {"measurement": "Critical", "setting": "[4]", "value": ">50 mg/L,"}, {"measurement": "Critical", "setting": "[5]", "value": ">15", "unit": "mg/L"}, {"measurement": "Therapeutic Range, trough", "value": "trough 5-15 mg/L"}]}
{"compound": "C#Cc1cccc(Nc2ncnc3cc(OCCOC)c(OCCOC)cc23)c1", "note": "[erlotinib]", "values": [{"measurement": "response in patients with drug-sensitive EGFR mutations at Exon 19 and 21", "setting": "[1]", "value": "significantly better response"}]}
{"compound": "COc1cc2ncnc(Nc3ccc(F)c(Cl)c3)c2cc1OCCCN1CCOCC1", "note": "[gefitinib, Gefitinib]", "values": [{"measurement": "progression free survival rate", "setting": "[2]", "value": "no detectable change"}, {"measurement": "inhibition of CYP2D6 activity", "setting": "CYP2D6", "value": "weak inhibitor"}, {"measurement": "reduction of area under the curve of gefitinib", "setting": "[3]; co-medication with CYP3A4 inducer rifampin", "value": 83, "unit": "%"}, {"measurement": "exposure to gefitinib", "setting": "[3]; co-medication with CYP3A4 inhibitor (intraconazole), health men", "value": "increases exposure"}]}
{"compound": "Gentamicin", "values": [{"measurement": "Critical", "setting": "in vivo", "value": ">12", "unit": "mg/L"}, {"measurement": "t1/2", "setting": "in vivo", "value": 2, "unit": "h"}, {"measurement": "Therapeutic Range, peak", "value": "peak 4-10 mg/L,"}, {"measurement": "Therapeutic Range, trough", "value": "trough 1-2 mg/L"}]}
